What follows are compounds tested against STAT3 (Homo sapiens, UniProt P40763) (assay: STAT3 HiBiT degradation assay in transfected A549 cells). Settings: A549, 24 h; read-out: STAT3 HiBiT A549 degradation 24 h: Average external-Abs DC50.
STAT3, sequence (P40763 whole entry): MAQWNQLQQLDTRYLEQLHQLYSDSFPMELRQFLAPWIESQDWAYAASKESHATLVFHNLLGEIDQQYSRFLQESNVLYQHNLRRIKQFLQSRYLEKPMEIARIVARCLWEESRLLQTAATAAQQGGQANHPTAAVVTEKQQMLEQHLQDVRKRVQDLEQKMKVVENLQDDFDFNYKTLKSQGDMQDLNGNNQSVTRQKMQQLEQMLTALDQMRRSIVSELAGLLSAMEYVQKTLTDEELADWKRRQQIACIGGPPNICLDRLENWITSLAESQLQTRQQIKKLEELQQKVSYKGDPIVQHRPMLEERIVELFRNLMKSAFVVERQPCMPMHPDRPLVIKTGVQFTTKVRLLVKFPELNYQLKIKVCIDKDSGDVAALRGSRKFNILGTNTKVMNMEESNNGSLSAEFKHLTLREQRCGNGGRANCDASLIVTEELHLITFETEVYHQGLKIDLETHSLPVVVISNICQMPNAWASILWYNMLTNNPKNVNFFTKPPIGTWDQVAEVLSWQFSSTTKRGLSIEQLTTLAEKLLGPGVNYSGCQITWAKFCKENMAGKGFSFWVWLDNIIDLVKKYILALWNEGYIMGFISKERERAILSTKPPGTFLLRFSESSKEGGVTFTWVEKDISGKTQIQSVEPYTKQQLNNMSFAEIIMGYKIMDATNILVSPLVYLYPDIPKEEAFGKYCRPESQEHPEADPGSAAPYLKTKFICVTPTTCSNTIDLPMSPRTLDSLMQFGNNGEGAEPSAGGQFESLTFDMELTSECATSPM
Format: cell-based
Set-up: expressed in transfected cells; host or cells: A549
Experimental: Compound preparation and Cell seeding: The transfected A549 cells were harvested from dish into cell culture medium and cell numbers counted. Cells were diluted with culture medium to the desired density and 30 μL of cell suspension (about 2000 cells/well) were added into each well of a 384-well cell culture plate as designated and transferred into 37° C. 5% CO2 incubator for 24 h. Compounds were dissolved to 10 mM stock solution and 12 μL of the stock solution was transferred to a 384 LDV-plate. 3 fold, 10-point dilution was performed by transferring 4 μL compound into 8 μL DMSO using a TECAN (EVO200) liquid handler. 30 μL of diluted compound from compound source plate was transferred into the cell plate as designated by using Echo550 and transferred into 37° C. 5% CO2 incubator for 24 h.
Detection: Plates were removed from incubators and equilibrated at room temperature for 15 minutes. Nano-Glo Hibit Lytic Detection reagent (Promega Cat #N3040) was thawed and equilibrated to room temperature before the experiment. 30 μL of Nano-Glo Hibit Lytic Detection reagent was added into each well to be detected. The plates were held at room temperature for 10 min followed by reading on EnSpire.
Data analysis: The remaining activity was calculated following the formula: Remaining Activity (%)=100%×(Lumsample−LumNC)/(LumPC−LumNC). Calculate the IC50 by fitting the curve using Xlfit (v5.3.1.3), equation 201: fit=(A+((B−A)/(1+((x/C)^D)))); A: Bottom; B: Top; C: IC50; and D: Slope.
The letter codes for STAT3 DC50 include: A (<0.01 μM), B (0.01-0.1 μM), C (0.1-1.0 μM), and D (>1.0 μM).
With `Cc1ncsc1-c1ccc([C@H](C)NC(=O)[C@@H]2C[C@@H](O)CN2C(=O)[C@@H](NC(=O)CCCCCc2c(F)ccc(OC[C@H](CCC(N)=O)NC(=O)[C@@H]3Cc4cccc5c4N3C(=O)[C@@H](NC(=O)c3cc4cc(C(=O)P(=O)(O)O)ccc4[nH]3)CC5)c2F)C(C)(C)C)cc1` [Compound I-252] the DC50 was < 0.01 µM.
With `Cn1c(=O)n(C2CCC(=O)NC2=O)c2cccc(CCCCCCCCC(=O)N3CC[C@H]4CC[C@@H](C(=O)N[C@@H](CCC(N)=O)C(=O)NC(c5ccccc5)c5ccccc5)N4C(=O)[C@@H](NC(=O)c4cc5cc(C(=O)P(=O)(O)O)ccc5[nH]4)C3)c21` (stereo partly drawn) [Compound I-125, 2-[[(5S,8S,10aR)-8-[[(1S)-3-carbamoyl-1-(diphenylmethylcarbamoyl)propyl]carbamoyl]-3-[9-[1-(2,6-dioxopiperidin-3-yl)-3-methyl-2-oxo-1,3-benzodiazol-4-yl]nonanoyl]-6-oxo-octahydropyrrolo[1,2-a][1,5]diazocin-5-yl]carbamoyl]-1H-indole-5-carbonylphosphonic acid] the DC50 was 0.1 to 1 µM.
With `Cc1ncsc1-c1ccc([C@H](C)NC(=O)[C@@H]2C[C@@H](O)CN2C(=O)[C@@H](NC(=O)CCCCc2cccc(OC[C@H](CCC(N)=O)NC(=O)[C@@H]3Cc4cccc5c4N3C(=O)[C@@H](NC(=O)c3cc4cc(C(=O)P(=O)(O)O)ccc4[nH]3)CC5)c2Cl)C(C)(C)C)cc1` [Compound I-243] the DC50 was < 0.01 µM.
`Cc1ncsc1-c1ccc([C@H](C)NC(=O)[C@@H]2C[C@@H](O)CN2C(=O)[C@@H](NC(=O)CCCCc2ccc(CO[C@H](C)[C@H](CCC(N)=O)NC(=O)[C@@H]3Cc4cccc5c4N3C(=O)[C@@H](NC(=O)c3cc4cc(C(=O)O)ccc4[nH]3)CC5)cc2)C(C)(C)C)cc1` [Compound I-131, Ammonium 2-[[(2S,11S)-2-[[(3S,4R)-1-carbamoyl-4-[[4-(4-[[(2S)-1-[(2S,4R)-4-hydroxy-2-[[(1S)-1-[4-(4-methyl-1,3-thiazol-5 yl)phenyl]ethyl]carbamoyl]pyrrolidin-1-yl]-3,3-dimethyl-1-oxobutan-2-yl]carbamoyl]butyl)phenyl]methoxy]pentan-3-yl]carbamoyl]-12-oxo-1-azatricyclo[6.4.1.0^[4,13]]trideca-4(13),5,7-trien-11-yl]carbamoyl]-1H-indole-5-carboxylate] was tested, and the DC50 was > 1 µM.
With `Cc1ncsc1-c1ccc([C@H](C)NC(=O)[C@@H]2C[C@@H](O)CN2C(=O)[C@@H](NC(=O)CCCCCc2cccc(NC(=O)[C@H](CCC(N)=O)NC(=O)[C@@H]3Cc4cccc5c4N3C(=O)[C@@H](NC(=O)c3cc4cc(C(=O)P(=O)(O)O)ccc4[nH]3)CC5)c2F)C(C)(C)C)cc1` [Compound I-250, 2-[[(2S,11S)-2-[[(1S)-3-carbamoyl-1-[[2-fluoro-3-(5-[[(2S)-1-[(2S,4R)-4-hydroxy-2-[[(1S)-1-[4-(4-methyl-1,3-thiazol-5-yl)phenyl]ethyl]carbamoyl]pyrrolidin-1-yl]-3,3-dimethyl-1-oxobutan-2-yl]carbamoyl]pentyl)phenyl]carbamoyl]propyl]carbamoyl]-12-oxo-1-azatricyclo[6.4.1.0^[4,13]]trideca-4(13),5,7-trien-11-yl]carbamoyl]-1H-indole-5-carbonylphosphonic acid] the DC50 was 0.01 to 0.1 µM.

Same assay, conditions: read-out: STAT3 HiBiT A549 degradation 24 h: Average external-Abs DC50; A549, 24 h
Work on `Cc1ncsc1-c1ccc(CNC(=O)[C@@H]2C[C@@H](O)CN2C(=O)[C@@H](NC(=O)CCCCc2ccc(CO[C@H](C)[C@H](CCC(N)=O)NC(=O)[C@@H]3[C@@H]4C[C@@H]4CN3C(=O)[C@H](CC(C)C)NC(=O)c3cc4cc(C(=O)P(=O)(O)O)ccc4[nH]3)cc2)C(C)(C)C)cc1` [Compound I-137, diammonium 2-[[(2S)-1-[(1R,2S,5S)-2-[[(3S,4R)-1-carbamoyl-4-[[4-(4-[[(2S)-1-[(2S,4R)-4-hydroxy-2-([[4-(4-methyl-1,3-thiazol-5-yl)phenyl]methyl]carbamoyl)pyrrolidin-1-yl]-3,3-dimethyl-1-oxobutan-2-yl]carbamoyl]butyl)phenyl]methoxy]pentan-3-yl]carbamoyl]-3-azabicyclo[3.1.0]hexan-3-yl]-4-methyl-1-oxopentan-2-yl]carbamoyl]-1H-indole-5-carbonylphosphonate] yielded a DC50 of 0.01 to 0.1 µM.
